Structures can show the parent of a compound that is named as a salt. Where two headings read alike, the source gives them in different places.
How the values were obtained:
human P2Y6 receptor [1] = target: T1, human P2Y6 receptor (Homo sapiens, UniProt Q15077); experiment: PLC activation; type: cell-based; conditions: for activity at the P2Y6 receptor: 1321N1 cells; for Pharmacological properties at hP2Y6 receptor: summary in words, Table 4
human P2Y6 receptor [2] = target: T1, human P2Y6 receptor; type: cell-based
human P2Y6 receptor [3] = target: T1, human P2Y6 receptor; conditions: cited from earlier work
human P2Y2 receptor [4] = target: T2, human P2Y2 receptor (Homo sapiens, UniProt P41231); conditions: read-out: EC50 hP2Y2; ref Kim et al.[26]; cited from earlier work
T2 sequence (P41231 whole entry): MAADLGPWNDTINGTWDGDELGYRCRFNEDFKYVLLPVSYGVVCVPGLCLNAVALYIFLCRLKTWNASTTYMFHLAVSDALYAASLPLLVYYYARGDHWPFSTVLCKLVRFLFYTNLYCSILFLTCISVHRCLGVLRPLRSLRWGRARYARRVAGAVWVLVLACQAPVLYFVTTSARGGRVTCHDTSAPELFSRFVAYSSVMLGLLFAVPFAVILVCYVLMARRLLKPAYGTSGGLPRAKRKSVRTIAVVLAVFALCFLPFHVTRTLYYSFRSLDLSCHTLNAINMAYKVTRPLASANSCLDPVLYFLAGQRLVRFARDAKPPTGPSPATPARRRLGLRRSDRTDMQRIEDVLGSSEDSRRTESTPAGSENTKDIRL

human P2Y4 receptor = human P2Y4 receptor (Homo sapiens, UniProt P51582); conditions: read-out: EC50 hP2Y4; ref Kim et al.[26]; cited from earlier work
human P2Y4 receptor, sequence (P51582 whole entry): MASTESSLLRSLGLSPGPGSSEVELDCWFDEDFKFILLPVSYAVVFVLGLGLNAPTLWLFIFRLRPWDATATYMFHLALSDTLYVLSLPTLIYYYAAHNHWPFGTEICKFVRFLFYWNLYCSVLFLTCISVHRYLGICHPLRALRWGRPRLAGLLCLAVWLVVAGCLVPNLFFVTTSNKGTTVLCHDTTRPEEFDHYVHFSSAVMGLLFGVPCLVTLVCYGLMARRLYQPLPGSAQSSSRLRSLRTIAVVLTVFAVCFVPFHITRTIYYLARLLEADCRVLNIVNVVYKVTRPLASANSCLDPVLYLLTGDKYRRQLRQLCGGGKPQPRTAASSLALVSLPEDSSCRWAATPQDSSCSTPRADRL

human P2Y2 receptor [5] = target: T2, human P2Y2 receptor; experiment: PLC activation; type: cell-based
human P2Y14 receptor = conditions: read-out: EC50 at the P2Y14 receptor; cited from earlier work
[6] = Stability in acidic aqueous solution; type: physicochemical; conditions: HCl buffer (pH 1.2)
[7] = ratio of EC50 values, PLC activation

T1 sequence (Q15077 whole entry): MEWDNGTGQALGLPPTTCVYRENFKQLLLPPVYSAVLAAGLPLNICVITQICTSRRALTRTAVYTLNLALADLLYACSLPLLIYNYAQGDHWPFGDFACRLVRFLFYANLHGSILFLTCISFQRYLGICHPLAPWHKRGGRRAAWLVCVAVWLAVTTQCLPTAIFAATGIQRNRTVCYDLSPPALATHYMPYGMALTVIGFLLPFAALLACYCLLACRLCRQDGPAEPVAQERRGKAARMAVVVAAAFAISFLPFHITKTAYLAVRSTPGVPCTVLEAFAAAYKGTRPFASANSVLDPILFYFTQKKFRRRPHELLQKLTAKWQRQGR

## CCN(CC)CC.O=c1ccn([C@@H]2O[C@H](COP(=O)(O)OP(=O)(O)OP(=O)(O)O[C@H]3O[C@H](CO)[C@@H](O)[C@H](O)[C@H]3O)[C@@H](O)[C@H]2O)c(=O)[nH]1 [Compound 27, P^1-Uridine-5′-P^3-[1]glucose-1′-triphosphate triethylammonium salt]
Human P2Y6 receptor [1]; PLC activation
  activity at the P2Y6 receptor: only weakly activated
Human P2Y6 receptor [1]; PLC activation, listed as UTP-glucose
  activity at the P2Y6 receptor: inactive
Human P2Y6 receptor [1]
  Pharmacological properties at hP2Y6 receptor: ~inactive

## CCN(CC)CC.O=c1ccn([C@@H]2O[C@H](COP(=O)(O)CP(=O)(O)OP(=O)(O)OC[C@H]3O[C@@H](n4ccc(=O)[nH]c4=O)[C@H](O)[C@@H]3O)[C@@H](O)[C@H]2O)c(=O)[nH]1 [Compound 22, P^1,P^3-Di(uridine-5′-)α,β-methylenetriphosphate triethylammonium salt]
Human P2Y6 receptor [1]; ratio of EC50 values
  reduction of P2Y6 receptor potency relative to Up3U 21: 5 fold
Human P2Y6 receptor [1]
  Pharmacological properties at hP2Y6 receptor: weak agonist, selective

## CCN(CC)CC.CO/N=c1/ccn([C@@H]2O[C@H](COP(=O)(O)OP(=O)(O)OP(=O)(O)OC[C@H]3O[C@@H](n4ccc(=O)[nH]c4=O)[C@H](O)[C@@H]3O)[C@@H](O)[C@H]2O)c(=O)[nH]1 [Compound 23, N^4-methoxy-Cp3U]
Human P2Y6 receptor [1]; ratio of EC50 values
  enhancement of P2Y6 receptor potency relative to Up3U 21: 22 fold
Human P2Y6 receptor [1]
  Pharmacological properties at hP2Y6 receptor: selective, potent agonist
Human P2Y6 receptor [2]
  EC50: 83 nM

## O=c1ccn(C2C(O)C(O)C3(COP(=O)(O)OP(=O)(O)OP(=O)(O)O)CC23)c(=O)[nH]1 (stereo not drawn) [Compound 19, (N)-methanocarba UTP]
Human P2Y6 receptor [3]; read-out: EC50 hP2Y6, NE = no effect at 10 μM, ref Kim et al.[26]
  EC50: > 10000 nM
Human P2Y2 receptor [4]
  EC50: 16 ± 7 nM
Human P2Y4 receptor
  EC50: 85 ± 5 nM

## O=c1[nH]c(=O)n([C@@H]2O[C@H](COP(=O)(O)OP(=O)(O)O)[C@@H](O)[C@H]2O)cc1I [Compound 3, 5-iodo-UDP]
Human P2Y6 receptor [2]
  EC50: 50 nM

## CC(C)(C)O/N=c1/ccn([C@@H]2O[C@H](COP(=O)(O)OP(=O)(O)O)[C@@H](O)[C@H]2O)c(=O)[nH]1 [Compound 14, N^4-t-Butyloxycytidine-5′-diphosphate ammonium salt]
Human P2Y6 receptor [1]
  EC50: 2550 ± 700 nM

## CCN(CC)CC.O=c1ccn([C@@H]2O[C@H](COP(=O)(O)OP(=O)(O)OP(=O)(O)OC3CCCCC3)[C@@H](O)[C@H]2O)c(=O)[nH]1 [Compound 25, P^1-Uridine-5′-P^3-cyclohexyl-triphosphate triethylammonium salt]
Human P2Y6 receptor [1]
  Pharmacological properties at hP2Y6 receptor: weak agonist, nonselective vs. P2Y2 receptor

## O=c1ccn([C@H]2[C@H](O)[C@H](O)[C@@]3(COP(=O)(O)OP(=O)(O)O)C[C@H]23)c(=O)[nH]1 [Compound 8, (N)-methanocarba UDP]
Human P2Y6 receptor [3]; previously found
  activity at the P2Y6 receptor: inactive

## CCN(CC)CC.O=c1ccn([C@@H]2O[C@H](COP(=O)(O)CP(=O)(O)OP(=O)(O)O[C@H]3O[C@H](CO)[C@@H](O)[C@H](O)[C@H]3O)[C@@H](O)[C@H]2O)c(=O)[nH]1 [Compound 31, Uridine-5′-glucose-1′-α,β-methylenetriphosphate triethylammonium salt]
Human P2Y6 receptor [1]; PLC activation
  activity at the P2Y6 receptor: only weakly active
Human P2Y6 receptor [1]
  Pharmacological properties at hP2Y6 receptor: ~inactive

## CONc1ccn([C@@H]2O[C@H](COP(=O)(O)OP(=O)(O)OP(=O)(O)OC[C@H]3O[C@@H](n4ccc(NOC)nc4=O)[C@H](O)[C@@H]3O)[C@@H](O)[C@H]2O)c(=O)n1 [Compound 24, N^4-OMe-Cp3(N^4-OMe)C]
Human P2Y6 receptor [2]
  EC50: 630 nM

## N.O=c1ccn([C@@]23C[C@H]2[C@H](COP(=O)(O)OP(=O)(O)O)[C@@H](O)[C@H]3O)c(=O)[nH]1 [Compound 7, (S)-Methanocarba-uridine-5′-diphosphate triethylammonium salt]
Human P2Y6 receptor [1]; ratio of EC50 values
  gain of potency at the P2Y6 receptor over (S)-methanocarba-2′-deoxy-UDP 6: 5 fold
  gain of potency at the P2Y6 receptor over UDP 1: 7 fold

## O=c1ccn([C@@H]2O[C@H](COP(=O)(O)OP(=O)(O)O)[C@@H](O)[C@H]2O)c(=O)[nH]1 [Compound 1, uridine-5′-diphosphate]
Human P2Y6 receptor [2]
  EC50: 200 nM

## O=c1ccn([C@@H]2O[C@H](COP(=O)(O)OP(=O)(O)OP(=O)(O)O)[C@@H](O)[C@H]2O)c(=O)[nH]1 [Compound 17, uridine-5′-triphosphate, reference compound]
Human P2Y6 receptor [1]
  Pharmacological properties at hP2Y6 receptor: ~inactive

## CO/N=c1/ccn([C@@H]2O[C@H](COP(=O)(O)CP(=O)(O)O)[C@@H](O)[C@H]2O)c(=O)[nH]1 [Compound 16, N^4-Methoxycytidine-5′-α,β-methylenediphosphate triethylammonium salt]
Human P2Y6 receptor [1]
  EC50: 678 ± 18 nM
Human P2Y2 receptor [5]
  EC50: > 10000 nM

## CCO/N=c1/ccn([C@@H]2O[C@H](COP(=O)(O)OP(=O)(O)O)[C@@H](O)[C@H]2O)c(=O)[nH]1 [Compound 13, N^4-Ethoxycytidine-5′-diphosphate ammonium salt]
Human P2Y6 receptor [1]
  EC50: 104 ± 23 nM

## CCN(CC)CC.O=c1ccn([C@@]23C[C@H]2[C@@H]2COP(=O)(O)OP(=O)(O)O[C@H]2[C@H]3O)c(=O)[nH]1 [Compound 9, (S)-Methanocarba-uridine-3′, 5′-cyclic diphosphate triethylammonium salt]
Human P2Y6 receptor [1]; PLC activation
  activity at the P2Y6 receptor: inactive

## CCN(CC)CC.CO/N=c1/ccn([C@@H]2O[C@H](COP(=O)(O)OP(=O)(O)OP(=O)(O)O[C@H]3O[C@H](CO)[C@@H](O)[C@H](O)[C@H]3O)[C@@H](O)[C@H]2O)c(=O)[nH]1 [Compound 32, N^4-Methoxycytidine-5′-glucose-1′-triphosphate triethylammonium salt]
Human P2Y6 receptor [1]; [7]
  selectivity P2Y6 versus P2Y2 receptor: > 100 fold
  selectivity P2Y6 versus P2Y4 receptor: > 100 fold

## CCN(CC)CC.CO/N=c1/ccn([C@@H]2O[C@H](COP(=O)(O)OP(=O)(O)OP(=O)(O)Oc3ccccc3)[C@@H](O)[C@H]2O)c(=O)[nH]1 [Compound 33, N^4-Methoxycytidine-5′-phenyl-triphosphate triethylammonium salt]
Human P2Y6 receptor [1]; PLC activation
  activity at the P2Y6 receptor: weakly activated

## CCN(CC)CC.O=C(Cn1c(=O)ccn([C@@H]2O[C@H](COP(=O)(O)OP(=O)(O)OP(=O)(O)O[C@H]3O[C@H](CO)[C@@H](O)[C@H](O)[C@H]3O)[C@@H](O)[C@H]2O)c1=O)c1ccccc1 [Compound 30, 3-Phenacyluridine-5′-glucose-1′-triphosphate triethylammonium salt]
Human P2Y6 receptor [1]; PLC activation
  activity at the P2Y6 receptor: only weakly active

## CCN(CC)CC.CO/N=c1\ccn([C@@H]2O[C@H](COP(=O)(O)OP(=O)(O)OP(=O)(O)O)[C@@H](O)[C@H]2O)c(=O)[nH]1 [Compound 20, N^4-Methoxycytidine-5′-triphosphate ammonium salt]
Human P2Y6 receptor [1]; ratio of EC50 values
  gain of potency at the P2Y6 receptor over UTP 17: > 100 fold

## CCN(CC)CC.O=c1[nH]/c(=N\OCc2ccccc2)ccn1[C@@H]1O[C@H](COP(=O)(O)OP(=O)(O)O)[C@@H](O)[C@H]1O [Compound 15, N^4-Benzyloxycytidine-5′-diphosphate ammonium salt]
Human P2Y6 receptor [1]
  Pharmacological properties at hP2Y6 receptor: selective, potent agonist

## CCN(CC)CC.CO/N=c1/ccn([C@@H]2O[C@H](COP(=O)(O)OP(=O)(O)O)[C@@H](O)[C@H]2O)c(=O)[nH]1 [Compound 12, N^4-Methoxycytidine-5′-diphosphate ammonium salt]
Human P2Y6 receptor [1]; PLC via P2Y6 versus inhibition of cyclic AMP accumulation in HEK-293 cells expressing hP2Y14
  selectivity P2Y6 versus P2Y14 receptor: 47 fold
Human P2Y6 receptor [1]; ratio of EC50 values
  gain of potency at the P2Y6 receptor over UDP 1: 4 fold
Human P2Y6 receptor [1]; [7]
  selectivity P2Y6 versus P2Y2 receptor: 51 fold
Human P2Y6 receptor [1]
  Pharmacological properties at hP2Y6 receptor: selective, potent agonist

## Nc1ccn([C@@H]2O[C@H](COP(=O)(O)OP(=O)(O)O)[C@@H](O)[C@H]2O)c(=O)n1 [CDP]
Human P2Y6 receptor [3]
  activity at the human P2Y6 receptor: nearly inactive
Human P2Y14 receptor
  EC50: > 10000 nM

## O=c1ccn([C@@H]2O[C@H](COP(=O)(O)OP(=O)(O)OP(=O)(O)OC[C@H]3O[C@@H](n4ccc(=O)[nH]c4=O)[C@H](O)[C@@H]3O)[C@@H](O)[C@H]2O)c(=O)[nH]1 [Compound 21, Up3U]
Human P2Y6 receptor [1]
  Pharmacological properties at hP2Y6 receptor: moderately potent agonist, only 4-5 fold selective
Human P2Y6 receptor [2]
  EC50: 370 nM
[6]
  half-life at 0.2 mg/mL: 218 h

## CCN(CC)CC.O=c1ccn([C@@H]2O[C@H](COP(=O)(O)OP(=O)(O)OP(=O)(O)Oc3ccccc3)[C@@H](O)[C@H]2O)c(=O)[nH]1 [Compound 26, P^1-Uridine-5′-P^3-phenyl-triphosphate triethylammonium salt]
Human P2Y6 receptor [1]
  Pharmacological properties at hP2Y6 receptor: weak agonist, selective
